Consider two molecules from article PMC12473689, “Drug Metabolism and Pharmacokinetics of Oxazolo[4,5-c]quinoline Analogs as Novel Interleukin-33 Inhibitors” (Pharmaceutics, 2025).

Structures are written as SMILES. Like-named read-outs stand apart in the source and are kept apart here.

The nature of data set [1]: Plasma protein binding by equilibrium dialysis (RED), human plasma. It counts as in vitro ADME. The following applies: equilibrium dialysis 37 °C 4 h, mean ± SD (n = 3), read-out: fu (%) plasma protein binding. The protocol:
(§1) The nonspecific binding of KB-1517 and KB-1518 in human and mouse plasma and liver S9 fractions was determined by equilibrium dialysis using a Rapid Equilibrium Device (RED) system (Thermo Fisher Scientific, Seoul, Republic of Korea).
(§2) Working solutions (200 μM for plasma, 60 μM for S9 fractions) were prepared in 40% aqueous acetonitrile. These were diluted 20-fold into either plasma or S9 incubation buffer (1 mg/mL protein, 200 mM Tris-HCl, 2 mM MgCl2, pH 7.4) to create the final dosing solutions.
(§3) For the dialysis, RED inserts (8 kDa MWCO) were used. Into each device, 200 μL of a dosing solution was added to the sample chamber, and 350 μL of PBS was added to the buffer chamber. The plate was sealed and incubated at 37 °C for 4 h on an orbital shaker (100 rpm) to allow the system to reach equilibrium.
(§4) Following incubation, 50 μL aliquots were taken from both chambers. To ensure analytical consistency, the samples were matrix-matched: the sample chamber aliquot was mixed with 50 μL of PBS, and the buffer chamber aliquot was mixed with 50 μL of the corresponding blank matrix (plasma or S9 incubation buffer). Proteins were then precipitated by adding 200 μL of ice-cold acetonitrile containing diclofenac (1 μg/mL) as IS. The samples were subsequently vortexed, sonicated for 5 min, and centrifuged at 4000× g for 20 min. Finally, a 100 μL aliquot of the resulting supernatant was diluted with 100 μL of HPLC-grade water in a 96-well plate for subsequent LC-MS/MS analysis.

Data set [2] is described as follows: Pharmacokinetic study after single IV and PO dose. It counts as in vivo. The following applies: male ICR mice; for bioavailability: oral, 10 mg/kg; for half-life: noncompartmental analysis. The protocol: All animal procedures were reviewed and approved by the Institutional Animal Care and Use Committee (IACUC) of Korea University (Approval No: KUIACUC-2020-0031) and conducted in compliance with the IACUC guidelines. […] In accordance with an approved protocol, mice were euthanized by CO2 asphyxiation at the end of the study. For intravenous (IV) administration, KB-1517 was dissolved in a vehicle of dimethylacetamide/Tween 80/water (5/5/90, v/v/v) at 1 mg/mL. KB-1518 (as TFA salt) was dissolved in DMSO/saline (10/90, v/v) at 1 mg/mL. Mice (n = 4 per group per compound) received a single IV dose of 5 mg/kg via the tail vein (dose volume: 5 mL/kg). For oral (PO) administration, the same formulations were used, and mice (n = 4 per group per compound) received a single dose of 10 mg/kg via oral gavage (dose volume: 10 mL/kg). For intraperitoneal (IP) administration, a suspension of KB-1517 or KB-1518 (0.4 mg/mL in PBS) was prepared by diluting a DMSO stock solution (13 mg/mL). Mice (n = 4 per compound) received a single IP injection of 0.2 mg per animal (dose volume: 500 µL). Serial blood samples (approximately 40 µL) were collected via the saphenous vein into Microvette® 100LH heparinized capillary tubes at selected time points. […] Plasma samples were stored in freezer until LC-MS/MS analysis. Protein precipitation was performed on 15 µL aliquots of plasma samples by adding three volumes of acetonitrile containing diclofenac as an analytical internal standard. The mixture was vortexed thoroughly and centrifuged at 3000× g for 30 min at 4 °C. A 50 µL aliquot of the resulting supernatant was transferred to a 96-well plate and mixed with 50 µL of water. The prepared solutions were analyzed using an Agilent 6460 QQQ LC-MS/MS system (Agilent Technologies Korea Ltd., Seoul, Republic of Korea). Quantitative analysis was performed using an Agilent 1290 Infinity Series HPLC system (Agilent Technologies Korea Ltd., Seoul, Republic of Korea) coupled to an Agilent 6460 QQQ mass spectrometer system (Agilent Technologies Korea Ltd., Seoul, Republic of Korea) with a dual AJS ESI ion source operating in positive ion mode. For chromatographic separation, an Agilent Eclipse Plus C18 column (2.1 × 100 mm, 3.5 µm) (Agilent Technologies Korea Ltd., Seoul, Republic of Korea) protected by a Phenomenex SecurityGuard C18 guard column was used. The mobile phase consisted of (A) 0.1% formic acid in water and (B) 0.1% formic acid in acetonitrile. […] The flow rate was 0.45 mL/min, the injection volume was 3 µL, and the column temperature was 40 °C. The ion source parameters for the mass spectrometer were set as follows: gas temperature 325 °C, gas flow 12 L/min, nebulizer pressure 35 psi, sheath gas temperature 350 °C, and sheath gas flow 10 L/min. Multiple Reaction Monitoring (MRM) transitions were used for quantification: KB-1517: m/z 402 → 72 (CE 10 V); KB-1518: m/z 402 → 72 (CE 5 V); Diclofenac (IS): m/z 296 → 215 (CE 30 V); […] Ranitidine: m/z 315 → 102 (CE 33 V); Itraconazole: m/z 705 → 395 (CE 40 V); […] Data acquisition and processing were performed using Agilent MassHunter Quantitative Analysis software (ver. B.05.00). Calibration curves were constructed using weighted linear regression. Noncompartmental analysis (NCA) was performed using PKSolver to determine pharmacokinetic parameters from the plasma concentration-time data. Parameters included: maximum plasma concentration (Cmax), time to reach Cmax (tmax), terminal elimination half-life (t1/2), area under the plasma concentration-time curve from time zero to the last measurable concentration (AUClast), area under the plasma concentration-time curve extrapolated to infinity (AUCinf), total body clearance (CL), and volume of distribution at steady state (Vss). […] Due to the anomalous profile of KB-1517, AUClast was used for its F calculation, and some parameters (t½, CL, Vss for IV; AUCinf for PO) could not be reliably determined (ND). […]

Data set [3] in a line: Plasma protein binding by equilibrium dialysis (RED), mouse plasma. The following applies: male, ICR, equilibrium dialysis 37 °C 4 h, mean ± SD (n = 3), read-out: fu (%) plasma protein binding. Type of data set: in vitro ADME. The protocol: as §1, §2, §3, §4
Data set [4] is described as follows: Binding in human liver S9 fraction by equilibrium dialysis (RED). Type of data set: in vitro ADME. The following applies: equilibrium dialysis 37 °C 4 h, mean ± SD (n = 3). The protocol: as §1, §2, §3, §4
Data set [5] is described as follows: Binding in mouse liver S9 fraction by equilibrium dialysis (RED). Type of data set: in vitro ADME. The following applies: equilibrium dialysis 37 °C 4 h, mean ± SD (n = 3). The protocol:
as §1, §2, §3, §4

Setting [6] is: mouse, plasma, single IV dose 5 mg/kg, mean ± SD (n = 4).
The mark [7] stands for this setting: mouse, plasma, single PO dose 10 mg/kg, mean ± SD (n = 4).

For the molecule `CN(C)CCn1c(=O)c2nc(-c3ccc(C(F)(F)F)cc3)oc2c2ccccc21` [KB-1517, 5-(2-(dimethylamino)ethyl)-2-(4-(trifluoromethyl)phenyl)oxazolo[4,5-c]quinolin-4(5H)-one], the fraction unbound at 4 h, 10 µM in data set [1] and in data set [3] was less than 0.02 throughout. In addition, the “F (apparent oral bioavailability)” value in data set [2] (PO 10 mg/kg vs IV 5 mg/kg, calculated using AUClast) was 119.3 ± 20.1%. Further, the bioavailability in data set [2] (male, ICR, mouse, plasma, PO 10 mg/kg vs IV 5 mg/kg, calculated using AUClast, read-out: F (apparent oral bioavailability)) is greater than 100%. Moreover, the exposure AUC(0-t) in data set [2] (setting [6]) came out at 1830 ± 348 ng·h/mL; in data set [2] (setting [7]) it was 4370 ± 738 ng·h/mL. The Cmax in data set [2] (setting [7]) was determined as 289 ± 34.1 ng/mL. Further, the Tmax in data set [2] (setting [7]) came out at 5.6 ± 3.5 h. For the same molecule, the “fu (%) in liver S9 fractions” value came out at 19.1 ± 0.7% in data set [4] (human liver S9, 1 mg/mL protein) and 15.1 ± 0.8% in data set [5] (mouse liver S9, 1 mg/mL protein). In addition, the fraction unbound at 4 h, 3 µM in data set [4] (human, liver S9 fraction, pH 7.4, human liver S9, 1 mg/mL protein, read-out: fu (%) in liver S9 fractions) is less than 0.2; in data set [5] (ICR, mouse, liver S9 fraction, pH 7.4, mouse liver S9, 1 mg/mL protein, read-out: fu (%) in liver S9 fractions) it was less than 0.2.
`CN(C)CCOc1nc2ccccc2c2oc(-c3ccc(C(F)(F)F)cc3)nc12` [KB-1518, N,N-dimethyl-2-((2-(4-(trifluoromethyl)phenyl)oxazolo[4,5-c]quinolin-4-yl)oxy)ethan-1-amine]: the “F (oral bioavailability)” value in data set [2] (PO 10 mg/kg vs IV 5 mg/kg, calculated from AUCinf) is reported as 13.6 ± 3.4%. The CL in data set [2] (single IV dose 5 mg/kg, mean ± SD (n = 4), 5 mg/kg) turned out to be 25 ± 3.3 mL/min/kg. Besides, the clearance in data set [2] (male, ICR, mouse, plasma, iv, 5 mg/kg, single IV dose 5 mg/kg, mean ± SD (n = 4)) was roughly 25 mL/min/kg. Besides, the Vd in data set [2] (male, ICR, mouse, plasma, iv, 5 mg/kg, single IV dose 5 mg/kg, mean ± SD (n = 4), read-out: Vss) was roughly 4.6 L/kg. Further, the bioavailability in data set [2] (male, ICR, mouse, plasma, PO 10 mg/kg vs IV 5 mg/kg, calculated from AUCinf, read-out: F (oral bioavailability)) is roughly 14%. Also, in data set [2] (setting [6]), the AUC(0-inf) came out at 3460 ± 476 ng·h/mL and the exposure AUC(0-t) was found to be 3460 ± 474 ng·h/mL. For the same molecule, in data set [2] (setting [7]), the AUC(0-inf) turned out to be 942 ± 234 ng·h/mL, the AUC(0-t) is 868 ± 267 ng·h/mL, the Cmax turned out to be 157 ± 104 ng/mL and the Tmax is 1.6 ± 0.8 h. The half-life in data set [2] (mouse, single IV dose 5 mg/kg, plasma, mean ± SD (n = 4)) was 2.6 ± 0.3 h. The molecule also had a half-life in data set [2] (mouse, single PO dose 10 mg/kg, plasma, mean ± SD (n = 4)) of 6.2 ± 1.9 h.
